These results are taken from patent EP4545550B1, “INSECT NEUROPEPTIDES” (Solasta Bio Limited, priority 2023, dated 2025).

The subject of this assay is Spodoptera frugiperda. Description: Lepidoptera artificial diet assay. It counts as in vivo. The note with it: unformulated peptide, final concentration 1x10^-4 M in artificial diet, one L1 larva per cell, n=10, after 168 hours; compared to the insecticide DDT and negative control vehicle. The source says: Frontier Lepidoptera artificial diet was made up by preparing agar at 1% and then mixing it with artificial diet powder. Peptide solution was aliquoted in 10 cells and diet poured straight onto it. The final concentration of the peptide was 1x10^-4 M, and each peptide was aliquoted in 10 cells. Once the diet solidified and cooled down, one L1 larvae was infested in each cell. The trays were sealed with heat and let larva were allowed to develop for 168 hrs. Finally, pupation and mortality were scored for. Lepidoptera artificial diet assays were performed with SB-P-80, and compared to a negative control vehicle and the insecticide dichlorodiphenyltrichloroethane (DDT).

Regarding “H-NADEDQQQSVDFTPRL-NH2 [SB-P-80, [Hy]-NADEDQQQSVDFTPRL-[NH2]]”, the “activity (pupation and mortality scored)” value is on record as “much higher activity”.
